# Assay results: PubChem BioAssay AID330 (DTP/NCI, 2004)
# Where “and” joins values, the source holds several entries; their conditions need not be identical. Identical values can stand only once. Toxic doses and inconclusive results are not listed.
# System: P388 leukemia ip, CD2F1 mice, survival T/C
# Assay: NCI In Vivo Anticancer Drug Screen. Data for tumor model P388 Leukemia (intraperitoneal) in CD2F1 (CDF1) mice
# Settings: endpoint: median survival time, higher = longer survival
# Method in brief: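 Mice carrying the transplanted tumor received test compound or vehicle. Survival was recorded in each group, and the value is the treated-group measurement divided by that of the vehicle-treated control group.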
# [1] = dose: 3.13 mg/kg/injection, schedule: Q01DX009 (ip), vehicle: saline with Tween-80
# [2] = dose: 6.25 mg/kg/injection, schedule: Q01DX009 (ip), vehicle: saline with Tween-80
# [3] = dose: 12.5 mg/kg/injection, schedule: Q01DX009 (ip), vehicle: saline with Tween-80
# [4] = dose: 25.0 mg/kg/injection, schedule: Q01DX009 (ip), vehicle: saline with Tween-80
# [5] = dose: 100.0 mg/kg/injection, schedule: Q01DX009 (ip), vehicle: saline
# [6] = dose: 200.0 mg/kg/injection, schedule: Q01DX009 (ip), vehicle: saline
# [7] = dose: 25.0 mg/kg/injection, schedule: Q04DX002 (ip), vehicle: saline with Tween-80
# [8] = dose: 50.0 mg/kg/injection, schedule: Q04DX002 (ip), vehicle: saline with Tween-80
# [9] = dose: 100.0 mg/kg/injection, schedule: Q04DX002 (ip), vehicle: saline with Tween-80
# [10] = dose: 100.0 mg/kg/injection, schedule: Q01DX001 (ip), vehicle: Klucel (hydroxypropylcellulose) (HPC)
# [11] = dose: 200.0 mg/kg/injection, schedule: Q01DX001 (ip), vehicle: Klucel (hydroxypropylcellulose) (HPC)
# [12] = dose: 400.0 mg/kg/injection, schedule: Q01DX001 (ip), vehicle: Klucel (hydroxypropylcellulose) (HPC)
# [13] = dose: 12.5 mg/kg/injection, schedule: Q01DX005 (ip), vehicle: Klucel (hydroxypropylcellulose) (HPC)
# [14] = dose: 25.0 mg/kg/injection, schedule: Q01DX005 (ip), vehicle: Klucel (hydroxypropylcellulose) (HPC)
# [15] = dose: 50.0 mg/kg/injection, schedule: Q01DX005 (ip), vehicle: Klucel (hydroxypropylcellulose) (HPC)
# [16] = dose: 6.25 mg/kg/injection, schedule: Q01DX005 (ip), vehicle: Klucel (hydroxypropylcellulose) (HPC)
# [17] = dose: 50.0 mg/kg/injection, schedule: Q01DX009 (ip), vehicle: saline with Tween-80
# [18] = dose: 50.0 mg/kg/injection, schedule: Q01DX005 (ip), vehicle: saline with Tween-80
# [19] = dose: 100.0 mg/kg/injection, schedule: Q01DX005 (ip), vehicle: saline with Tween-80
# [20] = dose: 100.0 mg/kg/injection, schedule: Q01DX005 (ip), vehicle: Klucel (hydroxypropylcellulose) (HPC)
# [21] = dose: 200.0 mg/kg/injection, schedule: Q01DX005 (ip), vehicle: Klucel (hydroxypropylcellulose) (HPC)
# [22] = dose: 100.0 mg/kg/injection, schedule: Q01DX009 (ip), vehicle: saline with Tween-80
# [23] = dose: 200.0 mg/kg/injection, schedule: Q01DX009 (ip), vehicle: saline with Tween-80
smiles,measurement,setting,value
Clc1ccc(N=Cc2cccs2)cc1,T/C,[1],100 % of control
same,T/C,[2],88 % of control
same,T/C,[3],90 % of control
same,T/C,[4],101 % of control
same,T/C,"dose: 50.0 mg/kg/injection, schedule: Q01DX009 (ip), vehicle: Klucel (hydroxypropylcellulose) (HPC)",110 % of control
same,T/C,"dose: 100.0 mg/kg/injection, schedule: Q01DX009 (ip), vehicle: Klucel (hydroxypropylcellulose) (HPC)",100 % of control
same,T/C,"dose: 200.0 mg/kg/injection, schedule: Q01DX009 (ip), vehicle: Klucel (hydroxypropylcellulose) (HPC)",100 % of control
COc1ccc2c(c1O)-c1cccc3c1C(C2)N(CCOCCCl)CC3 (stereo not drawn),T/C,"dose: 12.5 mg/kg/injection, schedule: Q04DX003 (ip), vehicle: water",99 % of control
same,T/C,"dose: 25.0 mg/kg/injection, schedule: Q04DX003 (ip), vehicle: water",107 % of control
same,T/C,"dose: 50.0 mg/kg/injection, schedule: Q04DX003 (ip), vehicle: water",101 % of control
same,T/C,"dose: 100.0 mg/kg/injection, schedule: Q04DX003 (ip), vehicle: water",104 % of control
CC(=O)Nc1ccc(S(=O)(=O)N/N=c2/sc3ccccc3n2C)cc1N,T/C,"dose: 6.25 mg/kg/injection, schedule: Q01DX009 (ip), vehicle: saline",96 % of control
same,T/C,"dose: 12.5 mg/kg/injection, schedule: Q01DX009 (ip), vehicle: saline",103 % of control
same,T/C,"dose: 25.0 mg/kg/injection, schedule: Q01DX009 (ip), vehicle: saline",100 % of control
same,T/C,[5],88 % of control
same,T/C,[6],92 % of control
Cn1c(=O)sc2ccccc21,T/C,[7],102 % of control
same,T/C,[8],104 % of control
same,T/C,[9],110 % of control
Nc1nc(CCCCc2ccccc2)c(N=Nc2ccc(Cl)cc2)c(=O)[nH]1,T/C,"dose: 60.0 mg/kg/injection, schedule: Q01DX005 (ip), vehicle: saline with Tween-80",97 % of control
same,T/C,"dose: 120.0 mg/kg/injection, schedule: Q01DX005 (ip), vehicle: saline with Tween-80",95 % of control
same,T/C,"dose: 240.0 mg/kg/injection, schedule: Q01DX005 (ip), vehicle: saline with Tween-80",103 % of control
CC1(C)CC(NC(=O)c2cc([N+](=O)[O-])c(S(=O)(=O)O)c([N+](=O)[O-])c2)CC(C)(C)N1O,T/C,[9],110 % of control
same,T/C,"dose: 200.0 mg/kg/injection, schedule: Q04DX002 (ip), vehicle: saline with Tween-80",100 % of control
same,T/C,"dose: 400.0 mg/kg/injection, schedule: Q04DX002 (ip), vehicle: saline with Tween-80",107 % of control
CCOP(O)(=S)OCC.[Ho],T/C,[10],91 % of control
same,T/C,[11],88 % of control
same,T/C,[12],90 % of control
O=C(CCCc1ccccc1)N1CCOCC1,T/C,"dose: 50.0 mg/kg/injection, schedule: Q01DX001 (ip), vehicle: saline sonified",90 % of control
same,T/C,"dose: 100.0 mg/kg/injection, schedule: Q01DX001 (ip), vehicle: saline sonified",109 % of control
same,T/C,"dose: 200.0 mg/kg/injection, schedule: Q01DX001 (ip), vehicle: saline sonified",100 % of control
N#CCc1ccccc1-c1ccccc1,T/C,[13],99 % of control
same,T/C,[14],94 % of control
same,T/C,[15],99 % of control
O=C1CCCCCC2=NC12 (stereo not drawn),T/C,[16],105 % of control and 90 % of control
same,T/C,[13],103 % of control and 109 % of control
same,T/C,[14],113 % of control and 118 % of control
same,T/C,[15],116 % of control
N#C/C(N)=C(/N)C#N,T/C,[3],100 % of control and 107 % of control
same,T/C,[4],102 % of control and 111 % of control
same,T/C,[17],104 % of control and 117 % of control and 124 % of control
O=C1c2cccc3cc([N+](=O)[O-])cc(c23)C(=O)N1CCCNCCNCCCN1C(=O)c2cccc3cc([N+](=O)[O-])cc(c23)C1=O,T/C,[18],92 % of control
same,T/C,[19],154 % of control
O=C(Nc1c2ccccc2nc2ccccc12)c1ccc([N+](=O)[O-])cc1,T/C,[15],94 % of control
same,T/C,[20],94 % of control
same,T/C,[21],100 % of control
CC(O)c1cc2c(cc1I)OCO2 (stereo not drawn),T/C,[10],106 % of control
same,T/C,[11],108 % of control
same,T/C,[12],107 % of control
NC(N)=NC(N)=Nc1cc2c3ccccc3ccc2c2ccccc12,T/C,"dose: 25.0 mg/kg/injection, schedule: Q01DX001 (ip), vehicle: saline with Tween-80",100 % of control
same,T/C,"dose: 50.0 mg/kg/injection, schedule: Q01DX001 (ip), vehicle: saline with Tween-80",98 % of control
same,T/C,"dose: 100.0 mg/kg/injection, schedule: Q01DX001 (ip), vehicle: saline with Tween-80",92 % of control
COc1nc(N)c2c3c([nH]c2c1C#N)C(C)(C)c1ccccc1N3C,T/C,[17],96 % of control
same,T/C,[22],100 % of control
same,T/C,[23],94 % of control
CCCCOCN(COCCCC)CC(C)(C)C,T/C,[17],107 % of control
same,T/C,[22],105 % of control
same,T/C,[23],109 % of control
CCNCc1c(C)[nH]c2ccccc2c1=O,T/C,"dose: 3.12 mg/kg/injection, schedule: Q01DX009 (ip), vehicle: saline with Tween-80",100 % of control
same,T/C,[2],101 % of control
same,T/C,[3],102 % of control
same,T/C,[4],105 % of control
same,T/C,[22],91 % of control
CC1CCC2OC23C(=O)C2OC2C(C(C)(C)O)C13C (stereo not drawn),T/C,[10],104 % of control
same,T/C,[11],101 % of control
same,T/C,[12],100 % of control
CCN(CC)CCNC(=O)c1cc(Cl)c(C(=O)NO)cc1OC,T/C,[16],87 % of control
same,T/C,[13],95 % of control
same,T/C,[14],104 % of control
Cc1cc(C)n(-c2cc(N3CCOCC3)ncn2)n1,T/C,"dose: 50.0 mg/kg/injection, schedule: Q01DX009 (ip), vehicle: saline",96 % of control
same,T/C,[5],95 % of control
same,T/C,[6],98 % of control
Cc1cc(C)c(C#N)c(SC(C(=O)Nc2cc(C(F)(F)F)ccc2Cl)c2ccccc2)n1 (stereo not drawn),T/C,[13],90 % of control
same,T/C,[14],89 % of control
same,T/C,[15],89 % of control and 90 % of control
same,T/C,[20],105 % of control
same,T/C,[21],105 % of control
O=c1ccc2cc(-c3ccncc3)cnc2[nH]1,T/C,[7],100 % of control
same,T/C,[8],94 % of control
CCN(CC)CCCC(C)Nc1c(C)cnc2cc(Cl)c(C)cc12 (stereo not drawn),T/C,"dose: 50.0 mg/kg/injection, schedule: Q01DX005 (ip), vehicle: saline",103 % of control
same,T/C,"dose: 100.0 mg/kg/injection, schedule: Q01DX005 (ip), vehicle: saline",100 % of control
CN(c1ccccc1)P(C)(Cl)(c1ccccc1)c1ccccc1,T/C,"dose: 1.56 mg/kg/injection, schedule: Q01DX009 (ip), vehicle: saline with Tween-80",101 % of control
same,T/C,[1],109 % of control
same,T/C,[2],118 % of control
CCC(=O)Nc1nnc(SCCCCCCSc2nnc(NC(=O)CC)s2)s1,T/C,[15],90 % of control
same,T/C,[20],88 % of control
same,T/C,[21],91 % of control
O=c1c2ccccc2[nH]c2cc([N+](=O)[O-])cc([N+](=O)[O-])c12,T/C,[18],90 % of control
same,T/C,[19],90 % of control
same,T/C,"dose: 200.0 mg/kg/injection, schedule: Q01DX005 (ip), vehicle: saline with Tween-80",98 % of control
COc1cc2c(c(OC)c1OC)-c1ccc(OC)c(=O)cc1C(N(C)C(=O)CO)CC2 (stereo not drawn),T/C,"dose: 0.16 mg/kg/injection, schedule: Q01DX009 (ip), vehicle: Klucel (hydroxypropylcellulose) (HPC)",120 % of control and 123 % of control
same,T/C,"dose: 0.31 mg/kg/injection, schedule: Q01DX009 (ip), vehicle: Klucel (hydroxypropylcellulose) (HPC)",155 % of control
same,T/C,"dose: 0.62 mg/kg/injection, schedule: Q01DX009 (ip), vehicle: Klucel (hydroxypropylcellulose) (HPC)",166 % of control
same,T/C,"dose: 0.62 mg/kg/injection, schedule: Q01DX009 (ip), vehicle: saline",189 % of control
same,T/C,"dose: 1.25 mg/kg/injection, schedule: Q01DX009 (ip), vehicle: Klucel (hydroxypropylcellulose) (HPC)",112 % of control and 212 % of control
CCCCCC(/C=C/C1C(O[Si](C)(C)C(C)(C)C)CC(N(C)C)C1(C/C=C/CCCC(=O)OC)S(=O)(=O)c1ccccc1)O[Si](C)(C)C(C)(C)C (stereo not drawn),T/C,"dose: 100.0 mg/kg/injection, schedule: Q04DX002 (ip), vehicle: Klucel (hydroxypropylcellulose) (HPC)",91 % of control
same,T/C,"dose: 200.0 mg/kg/injection, schedule: Q04DX002 (ip), vehicle: Klucel (hydroxypropylcellulose) (HPC)",88 % of control
same,T/C,"dose: 400.0 mg/kg/injection, schedule: Q04DX002 (ip), vehicle: Klucel (hydroxypropylcellulose) (HPC)",89 % of control
